Data as given in patent US11964988B2, “Fused heterocyclic compounds as RET kinase inhibitors” (ARRAY BIOPHARMA INC., priority 2018, dated 2024).

Columns and labels:
[1] = target: G810R mutant RET kinase (Homo sapiens, UniProt P07949, G810R); experiment: biochemical;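 further: HTRF KinEASE-TK enzymatic assay with 1 nM recombinant RET G810R, 1 h at 22 °C, dual-wavelength ratiometric readout, 100% control without compound, 0% from pre-quenched reactions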
[2] = target: G810S mutant RET kinase (Homo sapiens, UniProt P07949, G810S); experiment: biochemical;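 further: HTRF KinEASE-TK kinase assay with recombinant enzyme, 1 h at 22 °C, dual-wavelength ratiometric read-out, percent of control (DMSO-only = 100, pre-quenched reaction = 0)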
Chain of G810S mutant RET kinase (P07949 29-1114 G810S): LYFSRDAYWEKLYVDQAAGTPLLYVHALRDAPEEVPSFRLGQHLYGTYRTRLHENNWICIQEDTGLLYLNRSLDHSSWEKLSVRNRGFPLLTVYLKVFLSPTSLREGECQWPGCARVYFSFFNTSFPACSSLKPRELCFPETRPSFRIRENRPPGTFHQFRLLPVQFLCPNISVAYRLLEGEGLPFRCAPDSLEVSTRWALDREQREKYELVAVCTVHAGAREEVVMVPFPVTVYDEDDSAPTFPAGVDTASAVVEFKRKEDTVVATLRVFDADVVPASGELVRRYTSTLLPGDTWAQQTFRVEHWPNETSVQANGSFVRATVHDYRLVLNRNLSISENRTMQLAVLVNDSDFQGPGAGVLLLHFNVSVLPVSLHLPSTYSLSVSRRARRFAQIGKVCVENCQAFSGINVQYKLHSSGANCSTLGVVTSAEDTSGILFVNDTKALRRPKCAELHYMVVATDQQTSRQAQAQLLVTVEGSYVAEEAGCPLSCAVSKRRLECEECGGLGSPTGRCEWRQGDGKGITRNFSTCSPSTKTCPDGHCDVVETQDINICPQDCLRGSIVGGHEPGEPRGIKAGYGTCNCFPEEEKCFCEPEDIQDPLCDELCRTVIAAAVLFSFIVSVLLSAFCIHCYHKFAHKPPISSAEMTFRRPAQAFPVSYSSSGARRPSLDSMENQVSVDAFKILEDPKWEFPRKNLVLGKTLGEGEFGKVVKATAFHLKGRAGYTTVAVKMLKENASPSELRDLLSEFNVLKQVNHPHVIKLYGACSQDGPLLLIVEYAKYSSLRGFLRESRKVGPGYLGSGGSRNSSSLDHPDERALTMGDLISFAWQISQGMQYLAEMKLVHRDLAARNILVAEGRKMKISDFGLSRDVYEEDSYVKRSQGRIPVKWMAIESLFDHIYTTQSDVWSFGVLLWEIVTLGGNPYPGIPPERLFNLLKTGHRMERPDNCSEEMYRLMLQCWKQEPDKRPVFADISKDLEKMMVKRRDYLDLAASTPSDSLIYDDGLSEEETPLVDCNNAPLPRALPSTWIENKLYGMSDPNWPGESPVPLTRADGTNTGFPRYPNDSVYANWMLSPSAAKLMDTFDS

[3] = target: RET kinase Wild Type (Homo sapiens, UniProt P07949); experiment: biochemical;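 further: HTRF kinase activity assay on RET enzyme, 1 h reaction at 22 °C, dual-wavelength readout as percent of control, DMSO-only wells as 100%, pre-quenched reactions as 0%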
Chain of RET kinase Wild Type (P07949 29-1114): as the sequence (P07949 29-1114 G810S) above, with S782G counted along it

[4] = target: RET kinase V804M (Homo sapiens, UniProt P07949, V804M); experiment: RET Enzyme Assay (CisBio HTRF KinEASE-TK), V804M; assay type: biochemical; settings: read-out: RET V804M Enz FRET IC50
Chain of RET kinase V804M (P07949 29-1114 V804M): as the sequence (P07949 29-1114 G810S) above, with V776M, S782G counted along it

Chain of G810R mutant RET kinase (P07949 29-1114 G810R): as the sequence (P07949 29-1114 G810S) above, with S782R counted along it

IC50 [1] [nM]	IC50 [2] [nM]	IC50 [3] [nM]	IC50 [4] [nM]	Structure (SMILES)
308	859	275	749	CO[C@H]1CCc2c(c3c(N)ncnc3n2C(C)C)-c2noc(C3CC3)c21 (single isomer, unassigned) [Example 59]
354	648	205	1790	CC(C)n1c2c(c3c(N)ncnc31)-c1noc(C3CC3)c1C(=O)N(CCc1cnn(C)c1)C2 [Example 16, 11-amino-3-cyclopropyl-7-isopropyl-5-(2-(1-methyl-1H-pyrazol-4-yl)ethyl)-6,7-dihydroisoxazolo[4,3-c]pyrimido[5′,4′:4,5]pyrrolo[3,2-e]azepin-4(5H)-one]
533	433	49	241	CC(C)n1c2c(c3c(N)ncnc31)-c1noc(C3CC3)c1C(=O)N(C1CCN(Cc3ccccc3)C1)C2 (centres unmarked) [Example 17, 11-amino-5-(1-benzylpyrrolidin-3-yl)-3-cyclopropyl-7-isopropyl-6,7-dihydroisoxazolo[4,3-c]pyrimido[5′,4′:4,5]pyrrolo[3,2-e]azepin-4(5H)-one]
253	397	153	692	CC(C)n1c2c(c3c(N)ncnc31)-c1noc(C3CC3)c1C(=O)N(c1cnn(C)c1)C2 [Example 18, 11-amino-3-cyclopropyl-7-isopropyl-5-(1-methyl-1H-pyrazol-4-yl)-6,7-dihydroisoxazolo[4,3-c]pyrimido[5′,4′:4,5]pyrrolo[3,2-e]azepin-4(5H)-one]
308	581	142	595	CNC1CCc2c(c3c(N)ncnc3n2C(C)C)-c2noc(C3CC3)c21 (centres unmarked) [Example 27, 3-cyclopropyl-7-isopropyl-N4-methyl-4,5,6,7-tetrahydroisoxazolo[4″,3″:6′,7′]cyclohepta[1′,2′:4,5]pyrrolo[2,3-d]pyrimidine-4,11-diamine]
288	397	227	805	CC(C)n1c2c(c3c(N)ncnc31)-c1noc(C3CC3)c1CN(c1ccn(C)n1)C2 [Example 34, 3-cyclopropyl-7-isopropyl-5-(1-methyl-1H-pyrazol-3-yl)-4,5,6,7-tetrahydroisoxazolo[4,3-c]pyrimido[5′,4′:4,5]pyrrolo[3,2-e]azepin-11-amine]
3070	4140	893		CC(C)n1c2c(c3c(N)ncnc31)-c1noc(C3CC3)c1CN(C(=O)Cc1ccccc1)C2 [Example 39, 1-(11-amino-3-cyclopropyl-7-isopropyl-6,7-dihydroisoxazolo[4,3-c]pyrimido[5′,4′:4,5]pyrrolo[3,2-e]azepin-5(4H)-yl)-2-phenylethan-1-one]
7880		2440		CC(C)n1c2c(c3c(N)ncnc31)-c1ccc(NC(=O)CC3CC3)cc1C(=O)NC2 [Example 48, N-(12-amino-8-isopropyl-5-oxo-5,6,7,8-tetrahydrobenzo[c]pyrimido[5′,4′:4,5]pyrrolo[3,2-e]azepin-3-yl)-2-cyclopropylacetamide]
		8420		CC(C)n1c2c(c3c(N)ncnc31)-c1ccc(NC(=O)NC3CC3)cc1C(=O)NC2 [Example 49, 1-(12-amino-8-isopropyl-5-oxo-5,6,7,8-tetrahydrobenzo[c]pyrimido[5′,4′:4,5]pyrrolo[3,2-e]azepin-3-yl)-3-cyclopropylurea]
2570	5080	2180		CC(C)n1c2c(c3c(N)ncnc31)-c1ccc(Cl)c(F)c1C(=O)NC2 [Example 50, 12-amino-3-chloro-4-fluoro-8-isopropyl-7,8-dihydrobenzo[c]pyrimido[5′,4′:4,5]pyrrolo[3,2-e]azepin-5(6H)-one]
420	821	358		CC(C)n1c2c(c3c(N)ncnc31)-c1cc3ccc(C(F)(F)F)cc3n1C(=O)NC2 [Example 82, 1-amino-5-isopropyl-11-(trifluoromethyl)-6,7-dihydropyrimido[5″,4″:4′,5′]pyrrolo[2′,3′: 5,6][1,3]diazepino[1,7-a]indol-8(5H)-one]
501	960	389		COc1ccc2c(c1)cc1n2C(=O)NCc2c-1c1c(N)ncnc1n2C(C)C [Example 85, 1-amino-5-isopropyl-12-methoxy-6,7-dihydropyrimido[5″,4″:4′,5′]pyrrolo[2′,3′:5,6][1,3]diazepino[1,7-a]indol-8(5H)-one]
4070	7950	2210		Cc1cc(NC(=O)c2ccc3cc4n(c3c2)CCCc2c-4c3c(N)ncnc3n2C(C)C)nn1C [Example 98, 1-amino-N-(1,5-dimethyl-1H-pyrazol-3-yl)-5-isopropyl-5,6,7,8-tetrahydropyrimido[5″,4″:4′,5′]pyrrolo[3′,2′: 3,4]azepino[1,2-a]indole-11-carboxamide]
2210	3250	881		CC(C)n1c2c(c3c(N)ncnc31)-c1cc3ccc(C(=O)Nc4ccn(CC(=O)N(C)C)n4)cc3n1CCC2 [Example 99, 1-amino-N-(1-(2-(dimethylamino)-2-oxoethyl)-1H-pyrazol-3-yl)-5-isopropyl-5,6,7,8-tetrahydropyrimido[5″,4″:4′,5′]pyrrolo[3′,2′: 3,4]azepino[1,2-a]indole-11-carboxamide]
2420	3270	404		CC(C)n1c2c(c3c(N)ncnc31)-c1cc(C3CC3)nn1C(=O)NC2 [Example 106, 12-Amino-2-cyclopropyl-8-isopropyl-7,8-dihydropyrazolo[1,5-c]pyrimido[5′,4′:4,5]pyrrolo[3,2-e][1,3]diazepin-5(6H)-one]

The remaining lines, values behind:

Structure (SMILES)	IC50 [1] [nM]	IC50 [2] [nM]	IC50 [3] [nM]	IC50 [4] [nM]
CC(C)n1c2c(c3c(N)ncnc31)-c1noc(C3CC3)c1C(=O)N(CCN1CCS(=O)(=O)CC1)C2 [Example 9, 11-amino-3-cyclopropyl-5-(2-(1,1-dioxidothiomorpholino)ethyl)-7-isopropyl-6,7-dihydroisoxazolo[4,3-c]pyrimido[5′,4′:4,5]pyrrolo[3,2-e]azepin-4(5H)-one]	224	298	103	533
COc1ccc(CCN2Cc3c(c4c(N)ncnc4n3C(C)C)-c3noc(C4CC4)c3C2=O)cc1 [Example 14, 11-amino-3-cyclopropyl-7-isopropyl-5-(4-methoxyphenethyl)-6,7-dihydroisoxazolo[4,3-c]pyrimido[5′,4′:4,5]pyrrolo[3,2-e]azepin-4(5H)-one]	252	293	112	865
CC(C)n1c2c(c3c(N)ncnc31)-c1noc(C3CC3)c1CN(C)C2 [Example 31, 3-cyclopropyl-7-isopropyl-5-methyl-4,5,6,7-tetrahydroisoxazolo[4,3-c]pyrimido[5′,4′:4,5]pyrrolo[3,2-e]azepin-11-amine]	1320	1320	571	2210
CCC(=O)N1Cc2c(noc2C2CC2)-c2c(n(C(C)C)c3ncnc(N)c23)C1 [Example 37, 1-(11-amino-3-cyclopropyl-7-isopropyl-6,7-dihydroisoxazolo[4,3-c]pyrimido[5′,4′:4,5]pyrrolo[3,2-e]azepin-5(4H)-yl)propan-1-one 2,2,2-trifluoroacetate]	1280	1220	318	
CC(C)n1c2c(c3c(N)ncnc31)-c1noc(C3CC3)c1CN(C(=O)C1CC1)C2 [Example 38, (11-amino-3-cyclopropyl-7-isopropyl-6,7-dihydroisoxazolo[4,3-c]pyrimido[5′,4′:4,5]pyrrolo[3,2-e]azepin-5(4H)-yl)(cyclopropyl)methanone]	649	921	342	3120
CC(C)n1c2c(c3c(N)ncnc31)-c1noc(C3CC3)c1CN(CCO)C2 [Example 40, 2-(11-amino-3-cyclopropyl-7-isopropyl-6,7-dihydroisoxazolo[4,3-c]pyrimido[5′,4′:4,5]pyrrolo[3,2-e]azepin-5(4H)-yl)ethan-1-ol 2,2,2-trifluoroacetate]	724	973	621	2200
CC(C)n1c2c(c3c(N)ncnc31)-c1cc3cc(C#N)ccc3n1C(=O)NC2 [Example 78, 1-amino-5-isopropyl-8-oxo-5,6,7,8-tetrahydropyrimido[5″,4″:4′,5′]pyrrolo[2′,3′: 5,6][1,3]diazepino[1,7-a]indole-12-carbonitrile]	507	720	638	
COc1ccc2cc3n(c2c1)C(=O)NCc1c-3c2c(N)ncnc2n1C(C)C [Example 79, 1-amino-5-isopropyl-11-methoxy-6,7-dihydropyrimido[5″,4″:4′,5′]pyrrolo[2′,3′: 5,6][1,3]diazepino[1,7-a]indol-8(5H)-one]	270	591	356	
Cc1ccc2cc3n(c2c1)C(=O)NCc1c-3c2c(N)ncnc2n1C(C)C [Example 80, 1-amino-5-isopropyl-11-methyl-6,7-dihydropyrimido[5″,4″:4′,5′]pyrrolo[2′,3′: 5,6][1,3]diazepino[1,7-a]indol-8(5H)-one]	320	404	195	
CC(C)n1c2c(c3c(N)ncnc31)-c1cc3ccc(Cl)cc3n1C(=O)NC2 [Example 84, 1-amino-11-chloro-5-isopropyl-6,7-dihydropyrimido[5″,4″:4′,5′]pyrrolo[2′,3′: 5,6][1,3]diazepino[1,7-a]indol-8(5H)-one]	244	634	182	
CC(C)n1c2c(c3c(N)ncnc31)-c1cnn(C3CC3)c1C(=O)NC2 [Example 109, 11-amino-3-cyclopropyl-7-isopropyl-3,5,6,7-tetrahydro-4H-pyrazolo[3,4-c]pyrimido[5′,4′:4,5]pyrrolo[3,2-e]azepin-4-one 2,2,2-trifluoroacetate]	1810	2270	1780	
